Columns and labels:
Assay type in all cases: cell-based
Staphylococcus aureus = test: Agar plate disc-diffusion, antibacterial, Staphylococcus aureus; settings: nutrient agar, 37° C., 48 hours, DMSO zone subtracted; for inhibition zone, Staphylococcus aureus, A: A = concentration of comp. = 10,000 μL
Procedure: (§1) The agar plate disc-diffusion method was applied. […] The discs were then placed onto the surface of agar plates (nutrient agar for bacteria and Sabouraud's dextrose agar for fungi) seeded with the test organism. Each plate contained 15 mL of the agar medium, previously seeded with 0.2 mL of the broth culture of each organism pregrown for 18 hours. The plates were incubated at 37° C. for 48 hours, and 72 hours for fungi. The inhibition zones was measured in mm. Discs impregnated with DMSO were used as a control, and its inhibition zone was subtracted from the tested compound actual inhibition zone.
(§2) Their antibacterial screened against gram positive bacteria namely Bacillus cereus and Staphylococcus aureus and gram-negative bacterial strains namely Pseudomonas aeruginosa and Escherichia coli, while their antifungal activity screened against Aspergillus flavus and Chrysosporium keratinophilum as shown in tables 1 and 2 using ciprofloxacin as a reference.

Aspergillus flavus = test: Agar plate disc-diffusion, antifungal, Aspergillus flavus; settings: Sabouraud's dextrose agar, 37° C., 72 hours, DMSO zone subtracted; for inhibition zone, Aspergillus flavus, B: B = concentration of comp. = 30,000 μL
Procedure: as §1, §2

Bacillus cereus = test: Agar plate disc-diffusion, antibacterial, Bacillus cereus; settings: nutrient agar, 37° C., 48 hours, DMSO zone subtracted
Procedure: as §1, §2

Pseudomonas aeruginosa = test: Agar plate disc-diffusion, antibacterial, Pseudomonas aeruginosa; settings: nutrient agar, 37° C., 48 hours, DMSO zone subtracted
Procedure: as §1, §2

[1] = tested on: Chrysosporium keratinophilum; test: Agar plate disc-diffusion, antifungal, Chrysosporium keratinophilum; settings: Sabouraud's dextrose agar, 37° C., 72 hours, DMSO zone subtracted
Procedure: The agar plate disc-diffusion method was applied. Sterilized filter papers (6 mm in diameter) were wetted with 10 μL of a solution of 5-(4,5-bis(4-bromophenyl)-2-(4-chlorophenyl)-1H-imidazol-1-yl)pentanoic acid (V) to be tested, containing 10 mg/mL in DMSO, and the discs were allowed to air dry. The discs were then placed onto the surface of agar plates (nutrient agar for bacteria and Sabouraud's dextrose agar for fungi) seeded with the test organism. Each plate contained 15 mL of the agar medium, previously seeded with 0.2 mL of the broth culture of each organism pregrown for 18 hours. The plates were incubated at 37° C. for 48 hours, and 72 hours for fungi. The inhibition zones was measured in mm. Discs impregnated with DMSO were used as a control, and its inhibition zone was subtracted from the tested compound actual inhibition zone.
as §2

Escherichia coli = test: Agar plate disc-diffusion, antibacterial, Escherichia coli; settings: nutrient agar, 37° C., 48 hours, DMSO zone subtracted
Procedure: as §1, §2

[2] = A = concentration of comp. = 10,000 μL
[3] = B = concentration of comp. = 30,000 μL
[4] = C = concentration of comp. = 50,000 μL

Row | Compound | inhibition zone, Staphylococcus aureus, A (Staphylococcus aureus) | inhibition zone, Aspergillus flavus, B (Aspergillus flavus) | inhibition zone, Bacillus Cereus, A (Bacillus cereus; [2]) | inhibition zone, Bacillus Cereus, B (Bacillus cereus; [3]) | inhibition zone, Bacillus Cereus, C (Bacillus cereus; [4]) | inhibition zone, Pseudomonas aeruginosa, A (Pseudomonas aeruginosa; A = concentration of comp. = 10 mg/mL) | inhibition zone, Pseudomonas aeruginosa, B (Pseudomonas aeruginosa; [3]) | inhibition zone, Pseudomonas aeruginosa, C (Pseudomonas aeruginosa; [4]) | inhibition zone, Staphylococcus aureus, B (Staphylococcus aureus; [3]) | inhibition zone, Staphylococcus aureus, C (Staphylococcus aureus; [4]) | inhibition zone, Chrysosporium keratinophilum, A [1, 2] | inhibition zone, Chrysosporium keratinophilum, B [1, 3] | inhibition zone, Chrysosporium keratinophilum, C [1, 4] | inhibition zone, Escherichia coli, A (Escherichia coli; [2]) | inhibition zone, Escherichia coli, B (Escherichia coli; [3]) | inhibition zone, Escherichia coli, C (Escherichia coli; [4]) | inhibition zone, Aspergillus flavus, A (Aspergillus flavus; A = concentration of comp. = 10,000 μg/mL) | inhibition zone, Aspergillus flavus, C (Aspergillus flavus; [4])
1 | O=C(O)c1cn(C2CC2)c2cc(N3CCNCC3)c(F)cc2c1=O [Cip., ciprofloxacin, reference compound] | 42 mm | 32 mm |  |  |  |  |  |  |  |  |  |  |  |  |  |  |  | 
2 | O=C(O)CCCCn1c(-c2ccc(Cl)cc2)nc(-c2ccc(Br)cc2)c1-c1ccc(Br)cc1 [V, 5-(4,5-bis(4-bromophenyl)-2-(4-chlorophenyl)-1H-imidazol-1-yl)pentanoic acid] | 16 mm | 23 mm | 24 mm | 26 mm | 38 mm | 24 mm | 30 mm | 44 mm | 21 mm | 29 mm | 26 mm | 27 mm | 44 mm | 28 mm | 36 mm | 51 mm | 18 mm | 31 mm

Source: patent US11939298B1, “5-(4,5-bis(4-bromophenyl)-2-(4-chlorophenyl)-1H-imidazol-1-yl)pentanoic acid as an antimicrobial compound” (KING FAISAL UNIVERSITY, priority 2023, dated 2024)
